Reference: BindingDB's records for doi:10.1016/j.bioorg.2012.08.003 (North-West University, 2012)
pIC50: −log10 of the molar value.

Experiments:
[1] = biological target: T1, Amine oxidase [flavin-containing] B (Homo sapiens, UniProt P27338); assay: Inhibition Assay; conditions: pH 7.4; 37 °C
T1 sequence (P27338 whole entry): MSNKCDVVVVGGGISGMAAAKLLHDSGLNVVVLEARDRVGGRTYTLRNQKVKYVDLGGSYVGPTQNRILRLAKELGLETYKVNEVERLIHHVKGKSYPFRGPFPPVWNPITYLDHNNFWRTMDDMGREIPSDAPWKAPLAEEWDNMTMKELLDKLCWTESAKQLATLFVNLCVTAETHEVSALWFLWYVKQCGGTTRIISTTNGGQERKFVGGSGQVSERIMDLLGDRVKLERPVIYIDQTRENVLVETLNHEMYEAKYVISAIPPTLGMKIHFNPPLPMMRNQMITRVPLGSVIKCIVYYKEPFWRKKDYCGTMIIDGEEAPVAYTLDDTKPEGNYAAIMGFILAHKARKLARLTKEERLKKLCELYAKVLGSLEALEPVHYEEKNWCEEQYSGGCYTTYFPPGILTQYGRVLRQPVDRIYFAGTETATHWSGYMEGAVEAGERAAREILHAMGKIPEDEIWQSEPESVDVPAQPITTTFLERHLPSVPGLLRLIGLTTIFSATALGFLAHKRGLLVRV
Description: (§1) Inhibition studies using recombinant human MAO-A and MAO-B that were obtained from commercial sources (Sigma-Aldrich).

[2] = biological target: T2, Amine oxidase [flavin-containing] A (Homo sapiens, UniProt P21397); assay: Inhibition Assay; conditions: pH 7.4; 37 °C
T2 sequence (P21397 whole entry): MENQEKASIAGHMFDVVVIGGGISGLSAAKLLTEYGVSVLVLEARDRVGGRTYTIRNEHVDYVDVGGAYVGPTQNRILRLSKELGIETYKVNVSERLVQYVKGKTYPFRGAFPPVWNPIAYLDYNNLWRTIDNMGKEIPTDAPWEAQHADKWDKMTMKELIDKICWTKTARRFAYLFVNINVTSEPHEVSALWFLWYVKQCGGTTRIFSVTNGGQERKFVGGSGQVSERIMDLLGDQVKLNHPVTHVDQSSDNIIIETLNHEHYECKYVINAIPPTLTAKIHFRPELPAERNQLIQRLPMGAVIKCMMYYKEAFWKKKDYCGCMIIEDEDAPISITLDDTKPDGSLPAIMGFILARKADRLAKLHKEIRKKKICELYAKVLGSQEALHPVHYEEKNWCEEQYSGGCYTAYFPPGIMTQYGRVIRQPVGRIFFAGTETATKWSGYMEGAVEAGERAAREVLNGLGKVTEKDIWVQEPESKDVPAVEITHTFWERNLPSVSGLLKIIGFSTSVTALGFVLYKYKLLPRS
Description: as §1

Row | Structure (SMILES) | pIC50 [1] | pIC50 [2]
1 | O=c1ccoc2cc(OCc3cccc(Br)c3)ccc12 [C7-substituted chromone derivative, 3f] | 7.85 | 5.76
2 | O=c1ccoc2cc(OCCc3ccccc3)ccc12 [C7-substituted chromone derivative, 3b] | 6.94 | 5.66
3 | N#Cc1ccc(COc2ccc3c(=O)ccoc3c2)cc1 [C7-substituted chromone derivative, 3m] | 6.93 | 5.80
4 | O=c1ccoc2cc(OCc3cccc(F)c3)ccc12 [C7-substituted chromone derivative, 3h] | 7.36 | 5.68
5 | N#Cc1cccc(COc2ccc3c(=O)ccoc3c2)c1 [C7-substituted chromone derivative, 3l] | 6.43 | 6.11
6 | O=c1ccoc2cc(OCc3ccccc3)ccc12 [C7-substituted chromone derivative, 3a] | 7.07 | 5.27
7 | O=c1ccoc2cc(OCc3ccc(Br)cc3)ccc12 [C7-substituted chromone derivative, 3g] | 7.74 | 6.23
8 | Cc1cccc(COc2ccc3c(=O)ccoc3c2)c1 [C7-substituted chromone derivative, 3j] | 7.21 | 5.10
9 | O=c1ccoc2cc(OCc3ccc(F)cc3)ccc12 [C7-substituted chromone derivative, 3i] |  | 5.93
10 | O=c1ccoc2cc(OCCc3ccc(Br)cc3)ccc12 [C7-substituted chromone derivative, 3o] | 6.50 | 6.14
11 | O=c1ccoc2cc(OCc3ccc(Cl)cc3)ccc12 [C7-substituted chromone derivative, 3e] | 7.54 | 6.31
12 | O=c1ccoc2cc(OCc3cccc(Cl)c3)ccc12 [C7-substituted chromone derivative, 3d] |  | 5.82
13 | O=c1ccoc2cc(OCc3ccc(C(F)(F)F)cc3)ccc12 [C7-substituted chromone derivative, 3n] |  | 5.71
14 | O=c1ccoc2cc(OCCCc3ccccc3)ccc12 [C7-substituted chromone derivative, 3c] | 6.92 | 5.51
15 | Cc1ccc(COc2ccc3c(=O)ccoc3c2)cc1 [C7-substituted chromone derivative, 3k] | 7.12 | 5.15
